# Data as given in ChEMBL document CHEMBL4145634, “Discovery of Janus Kinase 2 (JAK2) and Histone Deacetylase (HDAC) Dual Inhibitors as a Novel Strategy for the Combinational Treatment of Leukemia and Invasive Fungal Infections” (J Med Chem, 2018).
# Active and inactive are the calls of the source. The rule behind the calls is not given here.
# Key:
# HEL [1] = assay: Antitumor activity against human HEL cells xenografted in BALB/C nude mouse assessed as tumor growth inhibition at 10 mg/kg, ip bid treated for 21 consecutive days relative to control; format: functional; settings: read-out: TGI
# Candida albicans [2] = assay: Antibiofilm activity against FLC resistant Candida albicans 0304103 assessed as inhibition of biofilm formation pre-incubated with 64 ug/ml FLC for 90 mins followed by further incubation with compound for 24 hrs by XTT reduction assay; format: functional, organism-based
# [3] = Clearance in ICR mouse liver microsomes at 1 uM measured up to 45 mins in presence of NADPH by LC-MS/MS analysis; format: ADME, microsome; settings: 0.75 h
# Candida albicans [4] = assay: Antibiofilm activity against FLC resistant Candida albicans 0304103 assessed as inhibition of biofilm formation pre-incubated with 64 ug/ml FLC for 90 mins followed by further incubation with compound at 16 ug/ml for 24 hrs by XTT reduction assay; format: functional
# HEL [5] = assay: Cell cycle arrest in human HEL cells assessed as accumulation at S phase at 10 uM after 48 hrs propidium iodide staining based flow cytometry relative to control; format: functional
# Candida albicans [6] = assay: Antifungal activity against FLC resistant Candida albicans 0304103 at 32 ug/ml up to 24 hrs by checkerboard microdilution method; format: functional, organism-based
# HEL [7] = assay: Cell cycle arrest in human HEL cells assessed as accumulation at S phase at 5 uM after 48 hrs propidium iodide staining based flow cytometry relative to control; format: functional
# HEL [8] = assay: Antitumor activity against human HEL cells xenografted in BALB/C nude mouse assessed as tumor growth at 10 mg/kg, ip bid treated for 21 consecutive days relative to control; format: functional
# HEL [9] = assay: Antitumor activity in human HEL cells xenografted in SCID mouse assessed as mouse survival time at 10 mg/kg, ip qd; format: functional
# HEL [10] = assay: Cell cycle arrest in human HEL cells assessed as accumulation at S phase at 1 uM after 48 hrs propidium iodide staining based flow cytometry relative to control; format: functional
# HEL [11] = assay: Cell cycle arrest in human HEL cells assessed as accumulation at G2/M phase at 1 uM after 48 hrs propidium iodide staining based flow cytometry (reference value: 9.32%); format: functional
# HEL [12] = assay: Cell cycle arrest in human HEL cells assessed as accumulation at G2/M phase at 5 uM after 48 hrs propidium iodide staining based flow cytometry (reference value: 9.31%); format: functional
# Rattus norvegicus = assay: Clearance in Sprague-Dawley rat at 10 mg/kg, ip by LC-MS/MS analysis; format: ADME, organism-based; settings: in vivo
# [13] = AUC (0 to infinity) in Sprague-Dawley rat at 10 mg/kg, ip by LC-MS/MS analysis; format: ADME, organism-based; set-up: dose 10 mg/kg, route intraperitoneal, time infinity; settings: in vivo
# [14] = Cmax in Sprague-Dawley rat at 10 mg/kg, ip by LC-MS/MS analysis; format: ADME, organism-based; set-up: dose 10 mg/kg, route intraperitoneal; settings: in vivo
# [15] = Tmax in Sprague-Dawley rat at 10 mg/kg, ip by LC-MS/MS analysis; format: ADME, organism-based; settings: in vivo
# HEL [16] = assay: Antitumor activity in human HEL cells xenografted in SCID mouse assessed as increase in mouse survival at 10 mg/kg, ip qd measured on day 32; format: functional; settings: 768 h
# [17] = Half life in Sprague-Dawley rat at 10 mg/kg, ip by LC-MS/MS analysis; format: ADME, organism-based; settings: in vivo
Compound,inhibition in vivo at 10 mg/kg (HEL [1]),inhibition (Candida albicans [2]),CLH [3],inhibition (INH) (Candida albicans [4]),Activity (HEL [5]),Activity (Candida albicans [6]),Activity (HEL [7]),T/C (HEL [8]),Survival (HEL [9]),Activity (HEL [10]),Activity (HEL [11]),Activity (HEL [12]),clearance (Rattus norvegicus),AUC(0-inf) [13],Cmax [14],Tmax [15],survival at 10 mg/kg (HEL [16]),half-life [17]
O=C(NO)c1ccc(-c2ccnc(Nc3ccc(N4CCOCC4)cc3)n2)cc1,59.9%,Dose-dependent effect,83.8 µL/min/mg,30%,48.68%,inactive,18.9%,41.1%,27 days,–,–,–,–,–,–,–,–,–
CS(=O)(=O)Nc1ccc(-c2ccnc(Nc3ccc(N4CCC(C(=O)NCCCCCCCC(=O)NO)CC4)cc3)n2)cc1,–,Dose-dependent effect,88.1 µL/min/mg,–,–,inactive,34.37%,–,27 days,25.56%,8.23%,8.12%,–,–,–,–,–,–
CS(=O)(=O)Nc1ccc(-c2ccnc(Nc3ccc(N4CCC(C(=O)Nc5ccc(/C=C/C(=O)NO)cc5)CC4)cc3)n2)cc1,–,Dose-dependent effect,71.6 µL/min/mg,30%,–,inactive,–,–,–,–,11.75%,28.14%,37.4 mL/min/kg,4470 ng·h/mL,1600 ng/mL,0.5 h,37.5%,5.14 h
